Measurements reported in article PMC11047580, “Design and Synthesis of Novel Amino and Acetamidoaurones with Antimicrobial Activities” (Antibiotics, 2024).
Converted amounts (≈) assume the structure as drawn.

Key:
C. albicans DSM10697 = assay: MIC assay; format: cell-based, Candida albicans; conditions: two-fold serial dilutions in liquid media, n = 2–3
S. aureus ATCC6538P = assay: MIC assay; format: cell-based, Staphylococcus aureus; conditions: two-fold serial dilutions in liquid media, n = 2–3
M. smegmatis ATCC700084 = assay: MIC assay (REMA); format: cell-based, Mycobacterium smegmatis; conditions: n = 2–3
P. aeruginosa ATCC9027 = assay: MIC assay; format: cell-based, Pseudomonas aeruginosa; conditions: two-fold serial dilutions in liquid media, n = 2–3
B. subtilis ATCC6633 = assay: MIC assay; format: cell-based, Bacillus subtilis; conditions: two-fold serial dilutions in liquid media, n = 2–3
E. coli ATCC8739 = assay: MIC assay; format: cell-based, Escherichia coli; conditions: two-fold serial dilutions in liquid media, n = 2–3
[1] = Staphylococcus aureus, ATCC6538P
[2] = Mycolicibacterium smegmatis, ATCC700084, REMA microdilution
[3] = Pseudomonas aeruginosa, ATCC9027

Row | Compound | MIC (C. albicans DSM10697; Candida albicans, DSM10697) [µM] | MIC (C. albicans DSM10697) [µM] | MIC (S. aureus ATCC6538P) [µM] | MIC (M. smegmatis ATCC700084; REMA microdilution) [µM] | MIC (P. aeruginosa ATCC9027) [µM] | MIC (B. subtilis ATCC6633) [µM] | MIC (E. coli ATCC8739) [µM] | melting point [°C] | MIC (S. aureus ATCC6538P; [1]) [µM] | MIC (M. smegmatis ATCC700084; [2]) [µM] | MIC (P. aeruginosa ATCC9027; [3]) [µM] | MIC (B. subtilis ATCC6633; Bacillus subtilis, ATCC6633) [µM] | MIC (E. coli ATCC8739; Escherichia coli, ATCC8739) [µM]
1 | C[C@@H]1[C@H](O)[C@@H](C)/C=C/C=C/C=C/C=C/C=C/C=C/C=C/[C@H](O[C@@H]2O[C@H](C)[C@@H](O)[C@H](N)[C@@H]2O)C[C@@H]2O[C@](O)(C[C@@H](O)C[C@@H](O)[C@H](O)CC[C@@H](O)C[C@@H](O)CC(=O)O[C@H]1C)C[C@H](O)[C@H]2C(=O)O [Amphotericin B, reference compound] | 0.62 (≈ 0.573 µg/mL) |  |  |  |  |  |  |  |  |  |  |  | 
2 | COc1ccccc1C=C1Oc2ccc(NC(C)=O)cc2C1=O [Compound 4] |  | >100 | 100 (≈ 30.9 µg/mL) | >100 | >100 | 50 (≈ 15.5 µg/mL) | >100 |  |  |  |  |  | 
3 | COc1cccc(/C=C2\Oc3ccc(NC(C)=O)cc3C2=O)c1 [Compound 5, (Z)-N-(2-(3-methoxybenzylidene)-3-oxo-2,3-dihydrobenzofuran-5-yl)acetamide] | > 100 |  |  |  |  |  |  | 204.2 | 100 (≈ 30.9 µg/mL) | 100 (≈ 30.9 µg/mL) | > 100 | > 100 | > 100
4 | COc1ccc(/C=C2\Oc3ccc(NC(C)=O)cc3C2=O)cc1 [Compound 6, (Z)-N-(2-(4-methoxybenzylidene)-3-oxo-2,3-dihydrobenzofuran-5-yl)acetamide] | > 100 |  |  |  |  |  |  | 252 | > 100 | > 100 | > 100 | > 100 | > 100
5 | COc1ccccc1/C=C1\Oc2ccc(N)cc2C1=O [Compound 7, (Z)-5-amino-2-(2-methoxybenzylidene)benzofuran-3(2H)-one] | > 100 |  |  |  |  |  |  | 189.3 | > 100 | > 100 | > 100 | > 100 | > 100
6 | COc1cccc(/C=C2\Oc3ccc(N)cc3C2=O)c1 [Compound 8, (Z)-5-amino-2-(3-methoxybenzylidene)benzofuran-3(2H)-one] | > 100 |  |  |  |  |  |  |  | > 100 | > 100 | > 100 | > 100 | > 100
7 | COc1ccc(/C=C2\Oc3ccc(N)cc3C2=O)cc1 [Compound 9, (Z)-5-amino-2-(4-methoxybenzylidene)benzofuran-3(2H)-one] | > 100 |  |  |  |  |  |  |  | > 100 | > 100 | > 100 | > 100 | > 100
8 | CC(=O)Nc1ccc2c(c1)C(=O)/C(=C/c1ccc(OCc3ccccc3)cc1)O2 [Compound 11, (Z)-N-(2-(4-(benzyloxy)benzylidene)-3-oxo-2,3-dihydrobenzofuran-5-yl)acetamide] | > 100 |  |  |  |  |  |  | 212.8 | > 100 | > 100 | > 100 | > 100 | > 100
9 | Nc1ccc2c(c1)C(=O)/C(=C/c1ccc(OCc3ccccc3)cc1)O2 [Compound 13, (Z)-5-amino-2-(4-(benzyloxy)benzylidene)benzofuran-3(2H)-one] | > 100 |  |  |  |  |  |  | 141.6 | > 100 | > 100 | > 100 | 100 (≈ 34.3 µg/mL) | > 100
10 | CC(=O)Nc1ccc2c(c1)C(=O)/C(=C/c1cccc(Oc3ccccc3)c1)O2 [Compound 14, (Z)-N-(3-oxo-2-(3-phenoxybenzylidene)-2,3-dihydrobenzofuran-5-yl)acetamide] | > 100 |  |  |  |  |  |  | 196.4 | > 100 | > 100 | > 100 | > 100 | > 100
11 | Nc1ccc2c(c1)C(=O)/C(=C/c1ccc(Oc3ccccc3)cc1)O2 [Compound 17, (Z)-5-amino-2-(4-phenoxybenzylidene)benzofuran-3(2H)-one] | > 100 |  |  |  |  |  |  | 170.6 | > 100 | > 100 | > 100 | > 100 | > 100
12 | CC(C)Oc1ccc(/C=C2\Oc3ccc(N)cc3C2=O)cc1 [Compound 23, (Z)-5-amino-2-(4-isopropoxybenzylidene)benzofuran-3(2H)-one] | > 100 |  |  |  |  |  |  | > 350 | > 100 | > 100 | > 100 | > 100 | > 100
13 | CC(=O)Nc1ccc2c(c1)C(=O)/C(=C/c1ccccc1F)O2 [Compound 24, (Z)-N-(2-(2-fluorobenzylidene)-3-oxo-2,3-dihydrobenzofuran-5-yl)acetamide] | > 100 |  |  |  |  |  |  | 226 | > 100 | > 100 | > 100 | > 100 | > 100
14 | CC(=O)Nc1ccc2c(c1)C(=O)/C(=C/c1cccc(F)c1)O2 [Compound 25, (Z)-N-(2-(3-fluorobenzylidene)-3-oxo-2,3-dihydrobenzofuran-5-yl)acetamide] | > 100 |  |  |  |  |  |  | 243.6 | > 100 | 100 (≈ 29.7 µg/mL) | > 100 | 50 (≈ 14.9 µg/mL) | > 100
15 | Nc1ccc2c(c1)C(=O)/C(=C/c1ccccc1F)O2 [Compound 26, (Z)-5-amino-2-(2-fluorobenzylidene)benzofuran-3(2H)-one] | > 100 |  |  |  |  |  |  |  | > 100 | > 100 | > 100 | 50 (≈ 12.8 µg/mL) | > 100
16 | Nc1ccc2c(c1)C(=O)/C(=C/c1cccc(F)c1)O2 [Compound 27, (Z)-5-amino-2-(3-fluorobenzylidene)benzofuran-3(2H)-one] | > 100 |  |  |  |  |  |  |  | > 100 | > 100 | > 100 | > 100 | > 100
17 | Nc1ccc2c(c1)C(=O)/C(=C/c1ccc(F)cc1)O2 [Compound 28, (Z)-5-amino-2-(4-fluorobenzylidene)benzofuran-3(2H)-one] | > 100 |  |  |  |  |  |  | 164.4 | > 100 | > 100 | > 100 | > 100 | > 100
18 | CC(=O)Nc1ccc2c(c1)C(=O)/C(=C/c1cccc(C(F)(F)F)c1)O2 [Compound 29, (Z)-N-(3-oxo-2-(3-(trifluoromethyl)benzylidene)-2,3-dihydrobenzofuran-5-yl)acetamide] | > 100 |  |  |  |  |  |  | 252.1 | > 100 | > 100 | > 100 | > 100 | > 100
19 | Nc1ccc2c(c1)C(=O)/C(=C/c1cccc(C(F)(F)F)c1)O2 [Compound 30, (Z)-5-amino-2-(3-(trifluoromethyl)benzylidene)benzofuran-3(2H)-one] | > 100 |  |  |  |  |  |  | > 350 | > 100 | > 100 | > 100 | > 100 | > 100
20 | CC(=O)Nc1ccc2c(c1)C(=O)/C(=C/c1ccc(C(=O)O)cc1)O2 [Compound 31, (Z)-4-((5-acetamido-3-oxobenzofuran-2(3H)-ylidene)methyl)benzoic acid] | > 100 |  |  |  |  |  |  |  | 100 (≈ 32.3 µg/mL) | 100 (≈ 32.3 µg/mL) | > 100 | 50 (≈ 16.2 µg/mL) | > 100
21 | CC(=O)Nc1ccc2c(c1)C(=O)/C(=C/c1cccc(O)c1)O2 [Compound 32, (Z)-N-(2-(3-hydroxybenzylidene)-3-oxo-2,3-dihydrobenzofuran-5-yl)acetamide] |  | >100 | >100 | >100 | >100 | >100 | >100 |  |  |  |  |  | 
22 | Nc1ccc2c(c1)C(=O)/C(=C/c1cccc(O)c1)O2 [Compound 33, (Z)-5-amino-2-(3-hydroxybenzylidene)benzofuran-3(2H)-one] |  | >100 | >100 | >100 | >100 | >100 | >100 |  |  |  |  |  | 
23 | CO/N=C1\CN(c2nc3c(cc2F)c(=O)c(C(=O)O)cn3C2CC2)CC1CN (stereo not shown) [Gemifloxacin, reference compound] |  |  |  |  |  |  |  |  | 0.06 (≈ 0.0234 µg/mL) | 2 (≈ 0.779 µg/mL) | 0.25 (≈ 0.0973 µg/mL) | 0.03 (≈ 0.0117 µg/mL) | 0.06 (≈ 0.0234 µg/mL)
